This is an account of results in patent US20220362330A1, “Compositions and Methods for Increasing Epithelial Barrier Function” (The Board of Trustees of the Leland Stanford Junior …, priority 2019, published 2022).

The subject of one assay is genital mucosa. The assay is described as follows: Entry of activated hPBMCs into vaginal tissue of humanized mice. It counts as in vivo, hPBMC-engrafted NSG mice. The settings on record: CFSE-labeled activated hPBMCs ivag, 15 h; DMPA vs DMPA and E cream. How it is done:
Because mice treated with DMPA and E were HSV-2 resistant and DMPA facilitated entry of leukocytes into vaginal tissue, it was posited that exogenous E blocks HIV-1 acquisition in a humanized mouse model of cell-associated HIV transmission. Human PBMC (hPBMCs)-engrafted NSG mice treated with DMPA or DMPA and E cream were ivag inoculated with CFSE-labeled activated hPBMCs. 15 h later, entry of these cells into vaginal tissue was examined by confocal microscopy. […] Humanized NSG mice treated as described above were also ivag infected with cell-associated HIV-1 (10^6 hPBMCs infected with HIV-1 Ba-L). 10 days later, serum was collected to quantify HIV-1 load via qRT-PCR.
To evaluate mucosal permeability to activated leukocytes, 10^6 human peripheral blood mononuclear cells (hPBMC)/ml were plated in RPMI-1640 supplemented with 10% FBS, 2 mM L-glutamine, 1 mM sodium pyruvate, non-essential amino acids, 50 μM 2-mercaptoethanol, 100 U/ml penicillin, 100 μg/ml streptomycin and 50 μg/ml gentamycin (Mediatech, Manassas, Va.) (henceforth termed complete medium). Plated cells were stimulated for 48 hours with 5 μg/ml of phytohemagglutinin (PHA) (Sigma-Aldrich, St. Louis Mo.), centrifuged, re-suspended (2×10^6 cells/ml) in complete media supplemented with 10 IU/ml recombinant human IL-2 (rhIL-2) (PeproTech, Rocky Hill, N.J.), and incubated another 5 days. […]

The subject of another assay is genital mucosal tissue. Put plainly: Entry of CFSE-labeled splenocytes into genital mucosal tissue. The assay is classed as in vivo. The settings on record: CFSE-labeled splenocytes ivag, 12 hours; vs estrus-stage mice. How it is done: Estrus-stage or DMPA-treated mice were administered CFSE-labeled splenocytes intravaginally and euthanized 12 hours later. Relative leukocyte infiltration of vaginal mucosal tissue in estrus-stage vs. DMPA-treated mice was evaluated by confocal microscopy.
These findings established progestin mediated increases in mucosal permeability promote both passive entry of low molecular weight molecules and incursion of larger-sized cells that are more reliant on energy-dependent processes.

Each structure is given as a SMILES string. Entries after “also recorded” stand apart in the source; their conditions may differ.

In the case of `CC(=O)O[C@]1(C(C)=O)CC[C@H]2[C@@H]3C[C@H](C)C4=CC(=O)CC[C@]4(C)[C@H]3CC[C@@]21C` [DMPA], the “penetration of activated hPBMCs into genital mucosa” value in the assay with genital mucosa was “more readily penetrated the genital mucosa”. In the assay on genital mucosal tissue, the “leukocyte entry into genital tissue” value was “facilitates entry of leukocytes into genital mucosal tissue; also recorded: promoted leukocyte entry into genital tissue”.
